According to patent US11452781B2, “Method of preventing and treating type 1 diabetes, allograft rejection and lung fibrosis (by targeting the ATP/P2X7R axis)” (CHILDREN'S MEDICAL CENTER CORPORATION, priority 2013, dated 2022):
Entries after “also recorded” stand apart in the source; their conditions may differ.

Key:
[1] = test system: splenocytes of cardiac-transplanted mice; experiment: Immune profiling of cardiac-transplanted mice (ELISPOT with BALB/c irradiated splenocytes, flow cytometry); format: in vivo, mouse
Experimental: To evaluate the effect of P2X7R targeting on the immune system of cardiac-transplanted mice, splenocytes were harvested at days 7 and 100 post-transplantation and were challenged with BALB/c irradiated splenocytes in an ELISPOT assay.
The effect of P2X7R targeting in preventing cardiac transplant rejection was tested by using the P2X7R inhibitor oATP. Untreated C57BL/6 mice transplanted with BALB/c hearts (fully mismatched) invariably rejected grafts within 7 days (mean survival time of 7 days). P2X7R targeting with the use of the short-term treatment of oATP ([…] oATP intraperitoneally daily for 14 days) induced long-term cardiac transplant survival (>100 days) in 80% of recipients. To evaluate the effect of P2X7R targeting on the immune system of cardiac-transplanted mice, splenocytes were harvested at days 7 and 100 posttransplantation and were challenged with BALB/c irradiated splenocytes in an enzyme-linked immunosorbent spot (ELISPOT) assay. […] The percentages of CD4+ Teffs and CD8+ Teffs were reduced by in vivo short-term P2X7R targeting in mice at days 7 and 100 posttransplantation in comparison with untreated mice.
mice adoptively transferred with naïve C57BL/6 splenocytes, and no protection was observed when splenocytes obtained from mice with long-term graft function were coadoptively transferred with naïve splenocytes. Conversely, prolonged graft survival >50 days was observed when splenocytes obtained from cardiac-transplanted mice with long-term graft function were adoptively transferred. […] The immunocompetence of treated mice at day 100 after transplantation was tested.

[2] = test system: STAT3; experiment: STAT3 phosphorylation in CD4+ T cells of cardiac-transplanted mice (Western blot); format: in vivo, mouse; conditions: 7 days after transplantation
Experimental: Several key components of T-cell receptor signaling involved in the alloimmune response were examined, and the phosphorylation kinetics following in vitro anti-CD3-Ig/anti-CD28-Ig-mediated CD4+ T-cell activation was evaluated by using the Luminex assay. […] The inventors first confirmed that Colivelin (Col) was able to restore the activation-induced phosphorylation of STAT3 in a dose-dependent manner in oATP-treated CD4+ T cells by Western blotting. […] The effect of oATP and Colivelin on STAT3 phosphorylation and T-cell function was also evaluated following cardiac transplantation.

[3] = test system: C57BL/6 mice transplanted with Bm12 left lung; experiment: Allogeneic orthotopic left lung transplantation, Bm12 into C57BL/6; format: in vivo, mouse
Experimental: The effect of oATP treatment in a model of allogeneic orthotropic left lung transplantation (Bm12 into C57BL/6) was assessed. Graft rejection and tissue fibrosis occurs early after transplantation and it is complete by day 30. […] CT scan was also performed in untreated or oATP-treated mice. Radiological analysis confirmed the preserved alveolar space and thus the functional integrity of oATP-treated compared to untreated mice (FIG. 8). oATP treatment is a rescue therapy for lung rejection. In a complementary experiment, oATP was tested as a rescue therapy for lung rejection. Bm12 left lung was transplanted into C57BL/6 mice and oATP treatment was started at day 10 after transplantation (when graft infiltration and rejection are evident) and mice follow for 30 days.

[4] = test system: B6 recipients of BALB/c lung allografts; experiment: Mouse orthotopic lung transplant, BALB/c donor and C57BL/6 recipient; format: in vivo
Experimental: Orthotopic left lung transplants were performed as previously described {Bizargity, #22; Iken, #21}. Briefly, donor mice were anesthetized with ketamine and xylazine, intubated with a 22 G Angiocath, and ventilated with isoflurane/oxygen. Lungs were flushed with ice cold phosphate buffered saline, left lung harvested and cuffs placed in the pulmonary artery, pulmonary vein and bronchus. Recipient mice were anesthetized and ventilated with isoflurane/oxygen, and left lung transplants performed via a thoracotomy and implantation of the three-cuffed hilar structures. Transplanted lungs were harvested 15 to 60-70 days following transplantation.
Allografts were evaluated 15, 30, and 60-70 days after transplant.
Outcome Measures—In vivo assessment of transplanted lung function was performed by thoracic CT scan imaging and measuring peak airway pressures (PawP) as previously described {Bizargity, #22}. […] Flow cytometry and enzyme-linked immunosorbent spot assay (ELISPOT) for interferon (IFN)-γ and interleukin (IL)-4 were performed as previously described {Vergani, #25; Vergani, #9}.

[5] = test system: OT1 splenocytes (CD8 T cells); experiment: OT1 splenocytes stimulated with OVA peptide, proliferation; format: cell-based, mouse; conditions: oATP 100 μM
Experimental: (§1) FIG. 16A depicts a graph of CD8 activation levels. To better assess the response of CD8 T cells, splenocytes isolated from OT1 mice were stimulated with OVA peptide with and without (positive control) oATP (100 μM) and T cell proliferation determined. […] FIG. 16C depicts photomicroscopy images and a graph of cell growth and survival. Freshly isolated human peripheral blood mononuclear cells (PBMCs, 4×10^5/ml) were applied onto pre-seeded A549 cells (at ˜20% confluency). Cells were cultured in RPMI medium supplemented with interferon gamma (IFNγ) with or without oATP for 7 days. […]
(§2) Outcome Measures—In vivo assessment of transplanted lung function was performed by thoracic CT scan imaging and measuring peak airway pressures (PawP) as previously described {Bizargity, #22}. ATP levels were measured from transplanted lung bronchoalveolar lavage fluid (BAL) by bioluminescent detection using Enliten ATP assay system (FF2000, Promega Corporation, Madison, Wis.). […] Immunohistochemistry was performed on frozen lung tissue sections utilizing CD4 and CD8 antibodies and isotype controls and assessed based on the average of 10 high power fields/lung allograft. […]
To assess the inhibitory actions of oATP upon CD8 cells, a CD8 specific response was analyzed by utilizing OT1 splenocytes stimulated with OVA peptide. […]

[6] = test system: A549 cells co-cultured with PBMCs; experiment: Cytotoxicity of human PBMC upon IFN-γ stimulated A549 cells, 7 days co-culture; format: cell-based; conditions: increasing doses of oATP
Experimental: as §1, with “days. Shown are representative images of A549 cells, and A549 cells co-cultured with PBMCs in the presence and absence of 200 μM oATP. Images were taken on day 7 of the co-culture.” for “days.”
as §2

periodate-oxidized ATP [oATP]
percentage of Tregs ([1]; day 7): No differences | percentage of Tregs ([1]; day 100): an increase | percentages of CD4+ Teffs and CD8+ Teffs ([1]; days 7 and 100 vs untreated): reduced | IFN-γ-producing cells after ovalbumin immunization (immunocompetence) ([1]; oATP-treated mice at day 100 vs naïve mice): no differences | number of IL-4-producing cells (ELISPOT) ([1]; oATP-treated vs untreated, day 7): increased | number of IFN-γ-producing cells (ELISPOT) ([1]; oATP-treated vs untreated, day 7 (and day 100)): Reduced; also recorded: fewer | percentage of Th17 cells (CD4+IL17+) ([1]; vs untreated, days 7 and 100): similarly reduced; also recorded: fewer | phosphorylated STAT3 in CD4+ T cells [2]: reduced levels | lung function (PawP, compliance) after rescue therapy ([3]; oATP started at day 10): Better functional preservation of lung compliance | radiological and histological analysis after rescue therapy ([3]; oATP started at day 10, followed for 30 days): reversal of graft rejection and no signs of fibrosis; also recorded: preservation of alveolar space | graft fibrosis, inflammation and alveolar spaces ([3]; treatment from transplantation): prevents graft fibrosis; also recorded: highly reduced inflammation and preserved alveolar spaces | lung function (PawP) ([4]; 15 to ≥60 days): significantly improved | percentage of Th17 cells ([4]; 15 days): not a significant difference | total number of Th17 cells ([4]; 15 days): reduction; also recorded: fewer | total number of Treg ([4]; 15 days): reduction; also recorded: fewer | BAL ATP levels ([4]; 15 days post transplant): significant reduction | acute rejection, comparison of treatments (FIG. 17) ([4]; 30 days, CSA 10 mg/kg/day, CTLA-4Ig 250 μg, oATP 250 μg/day, Rap 0.1 mg/kg/day): better outcomes than cyclosporine alone; also recorded: more robust as compared to CSA | thoracic CT imaging of left lung allografts ([4]; all three time points): little infiltrate | number of leucocytes and lymphocytes isolated from lung allografts ([4]; day 15, flow cytometry, vs untreated): nearly half; also recorded: significantly fewer | effector memory T cells (CD44highCD62Llow) ([4]; lung allograft T cells): inhibitory effect; also recorded: significant reduction | IFN-γ and IL-4 response of isolated T cells (ELISPOT) ([4]; most pronounced after 15 days): impaired | CD4 and CD8 T cells within lung allografts ([4]; mouse, in vivo): decrease | amount of inflammation (score 0-4) / histology ([4]; mouse, in vivo): remarkable reduction; also recorded: limited disease | percentage of CD8 Tcm (CD8+CD44+CD62L+CCR7+) ([4]; mouse, in vivo): increased | percentage of Treg ([4]; mouse, in vivo): not a remarkable difference | lung allograft survival / function ([4]; oATP daily IP): > 60 days | lung function (PawP) after rescue dosing ([4]; oATP days 15-30): improved; also recorded: significant improvement | allo-specific CD8 activation/proliferation [5]: dramatic reduction; also recorded: significant reduction | cytolytic activity of PBMC on A549 cells [6]: remarkable reduction
